In patent US12077503B2, “Substituted cyclic amides and their use as herbicides” (FMC CORPORATION, priority 2015, dated 2024):

Assays:
Type in all cases: in vivo
[1] = test system: ryegrass, Italian (Italian ryegrass, Lolium multiflorum); experiment: Test A preemergence; settings: Lolium multiflorum, pre-emergence, 240 h, 0 to 100 scale where 0 is no effect and 100 is complete control, read-out: Ryegrass, Italian plant response rating
Method in brief: (§1)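 Visual injury, scored on a 0–100 scale relative to untreated controls, was recorded about 10 d after application. Treatments were a preemergence soil spray over planted seeds or a postemergence spray on plants at the one- to two-leaf stage, 2 to 10 cm tall, all in loam soil–sand blend in the greenhouse.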

[2] = test system: giant foxtail (Setaria faberii); experiment: Test A preemergence; settings: Setaria faberi, pre-emergence, 240 h, 0 to 100 scale where 0 is no effect and 100 is complete control, read-out: Foxtail, Giant plant response rating
Method in brief: as §1

[3] = test system: ragweed (common ragweed, Ambrosia elatior); experiment: Test A preemergence; settings: Ambrosia artemisiifolia, pre-emergence, 240 h, 0 to 100 scale where 0 is no effect and 100 is complete control, read-out: Ragweed plant response rating
Method in brief: as §1

[4] = test system: barnyardgrass (Echinochloa crus-galli); experiment: Test A preemergence; settings: Echinochloa crus-galli, pre-emergence, 240 h, 0 to 100 scale where 0 is no effect and 100 is complete control, read-out: Barnyardgrass plant response rating
Method in brief: as §1

Kochia (Kochia scoparia) [5] = experiment: Test A preemergence; settings: Bassia scoparia, pre-emergence, 240 h, 0 to 100 scale where 0 is no effect and 100 is complete control, read-out: Kochia plant response rating
Method in brief: as §1

[6] = test system: pigweed (Amaranthus retroflexus); experiment: Test A preemergence; settings: Amaranthus retroflexus, pre-emergence, 240 h, 0 to 100 scale where 0 is no effect and 100 is complete control, read-out: Pigweed plant response rating
rice (Oryra sativa) = experiment: Test B flooded paddy test; settings: Oryza sativa, 250 g ai/ha, Flood; 0 to 100 scale where 0 is no effect and 100 is complete control; read-out: Rice plant response rating
Method in brief: (§2)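 Rating scale 0–100 (visual, vs untreated controls) after a 13–15 d greenhouse period; application to the flood layer, 3 cm above soil and maintained; plants at 2-leaf stage when treated.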

[7] = test system: barnyardgrass (Echinochloa crus-galli); experiment: Test B flooded paddy test; settings: Echinochloa crus-galli, 250 g ai/ha, Flood; 0 to 100 scale where 0 is no effect and 100 is complete control; read-out: Barnyardgrass plant response rating
Method in brief: as §2

[8] = test system: ducksalad (Heteranthera limosa); experiment: Test B flooded paddy test; settings: Heteranthera limosa, 250 g ai/ha, Flood; 0 to 100 scale where 0 is no effect and 100 is complete control; read-out: Ducksalad plant response rating
Method in brief: as §2

[9] = test system: sedge, umbrella (small-flower umbrella sedge, Cyperus difformis); experiment: Test B flooded paddy test; settings: Cyperus difformis, 250 g ai/ha, Flood; 0 to 100 scale where 0 is no effect and 100 is complete control; read-out: Sedge, Umbrella plant response rating
Method in brief: as §2

[10] = test system: ryegrass, Italian (Italian ryegrass, Lolium multiflorum); experiment: Test A postemergence; settings: Lolium multiflorum, post-emergence, 240 h, 125 g ai/ha, postemergence, visual injury vs untreated controls after approx. 10 d; 0 = no effect, 100 = complete control; read-out: Ryegrass, Italian plant response rating (0 to 100 scale)
Method in brief: as §1

[11] = test system: giant foxtail (Setaria faberii); experiment: Test A postemergence; settings: Setaria faberi, post-emergence, 240 h
Method in brief: as §1

[12] = test system: Galium (catchweed bedstraw, Galium aparine); experiment: Test A postemergence; settings: Galium, post-emergence, 240 h
Method in brief: as §1

[13] = test system: ragweed (common ragweed, Ambrosia elatior); experiment: Test A postemergence; settings: Ambrosia artemisiifolia, post-emergence, 240 h, 125 g ai/ha, postemergence, visual injury vs untreated controls after approx. 10 d; 0 = no effect, 100 = complete control; read-out: Ragweed plant response rating (0 to 100 scale)
Method in brief: as §1

[14] = test system: barnyardgrass (Echinochloa crus-galli); experiment: Test A postemergence; settings: Echinochloa crus-galli, post-emergence, 240 h
Method in brief: as §1

corn (Zea mays) = experiment: Test A postemergence; settings: Zea mays, post-emergence, 240 h
Method in brief: as §1

Kochia (Kochia scoparia) [15] = experiment: Test A postemergence; settings: Bassia scoparia, post-emergence, 240 h
Method in brief: as §1

[16] = test system: wheat (Triticum aestivum); experiment: Test A postemergence; settings: Triticum aestivum, post-emergence, 240 h, 125 g ai/ha, postemergence, visual injury vs untreated controls after approx. 10 d; 0 = no effect, 100 = complete control; read-out: Wheat plant response rating (0 to 100 scale)
Method in brief: as §1

[17] = test system: pigweed (Amaranthus retroflexus); experiment: Test A postemergence; settings: Amaranthus retroflexus, post-emergence, 240 h, 125 g ai/ha, postemergence, visual injury vs untreated controls after approx. 10 d; 0 = no effect, 100 = complete control; read-out: Pigweed plant response rating (0 to 100 scale)
Method in brief: as §1

[18] = test system: blackgrass (Alopecurus myosuroides); experiment: Test A postemergence; settings: Alopecurus myosuroides, post-emergence, 240 h
Method in brief: as §1

[19] = 125 g ai/ha, preemergence, visual injury rating, approximately 10 d

## COc1ccc(C(F)(F)F)cc1[C@H]1CN(C)C(=O)[C@@H]1C(=O)Nc1ccccc1SC [Compound 1185]
[1]; 31 g ai/ha, Preemergence
  pest or weed control at 31 g/ha: 0%
[1]; [19]
  pest or weed control at 125 g/ha: 60%
[2]; 31 g ai/ha, Preemergence
  pest or weed control at 31 g/ha: 50%
[2]; [19]
  pest or weed control at 125 g/ha: 90%
[3]; 31 g ai/ha, Preemergence
  pest or weed control at 31 g/ha: 0%
[3]; [19]
  pest or weed control at 125 g/ha: 0%
[4]; 31 g ai/ha, Preemergence
  pest or weed control at 31 g/ha: 70%
[4]; [19]
  pest or weed control at 125 g/ha: 100%
Kochia (Kochia scoparia) [5]; 31 g ai/ha, Preemergence
  pest or weed control at 31 g/ha: 0%
Kochia (Kochia scoparia) [5]; [19]
  pest or weed control at 125 g/ha: 0%
[6]; 31 g ai/ha, Preemergence
  pest or weed control at 31 g/ha: 0%
[6]; [19]
  pest or weed control at 125 g/ha: 0%
Rice (Oryra sativa)
  pest or weed control at 250 g/ha: 0%
[7]
  pest or weed control at 250 g/ha: 60%
[8]
  pest or weed control at 250 g/ha: 50%
[9]
  pest or weed control at 250 g/ha: 0%
[10]
  pest or weed control at 125 g/ha: 20%
[11]; 125 g ai/ha, postemergence, visual injury vs untreated controls after approx. 10 d, 0 = no effect, 100 = complete control, read-out: Foxtail, Giant plant response rating (0 to 100 scale)
  pest or weed control at 125 g/ha: 60%
[11]; Postemergence, 31 g ai/ha, visual injury after approx. 10 d, 0 to 100 scale, 0 no effect, 100 complete control, read-out: Plant response rating, Foxtail, Giant
  pest or weed control at 31 g/ha: 30%
[12]; 125 g ai/ha, postemergence, visual injury vs untreated controls after approx. 10 d, 0 = no effect, 100 = complete control, read-out: Galium plant response rating (0 to 100 scale)
  pest or weed control at 125 g/ha: 0%
[12]; Postemergence, 31 g ai/ha, visual injury after approx. 10 d, 0 to 100 scale, 0 no effect, 100 complete control, read-out: Plant response rating, Galium
  pest or weed control at 31 g/ha: 0%
[13]
  pest or weed control at 125 g/ha: 0%
[14]; 125 g ai/ha, postemergence, visual injury vs untreated controls after approx. 10 d, 0 = no effect, 100 = complete control, read-out: Barnyardgrass plant response rating (0 to 100 scale)
  pest or weed control at 125 g/ha: 50%
[14]; Postemergence, 31 g ai/ha, visual injury after approx. 10 d, 0 to 100 scale, 0 no effect, 100 complete control, read-out: Plant response rating, Barnyardgrass
  pest or weed control at 31 g/ha: 20%
Corn (Zea mays); 125 g ai/ha, postemergence, visual injury vs untreated controls after approx. 10 d, 0 = no effect, 100 = complete control, read-out: Corn plant response rating (0 to 100 scale)
  plant injury at 125 g/ha: 20%
Corn (Zea mays); Postemergence, 31 g ai/ha, visual injury after approx. 10 d, 0 to 100 scale, 0 no effect, 100 complete control
  Corn plant response rating (crop injury, 0 = no effect, 100 = complete kill) at 31 g/ha: 0%
Kochia (Kochia scoparia) [15]; 125 g ai/ha, postemergence, visual injury vs untreated controls after approx. 10 d, 0 = no effect, 100 = complete control, read-out: Kochia plant response rating (0 to 100 scale)
  pest or weed control at 125 g/ha: 0%
Kochia (Kochia scoparia) [15]; Postemergence, 31 g ai/ha, visual injury after approx. 10 d, 0 to 100 scale, 0 no effect, 100 complete control, read-out: Plant response rating, Kochia
  pest or weed control at 31 g/ha: 0%
[16]
  plant injury at 125 g/ha: 40%
[17]
  pest or weed control at 125 g/ha: 0%
[18]; 125 g ai/ha, postemergence, visual injury vs untreated controls after approx. 10 d, 0 = no effect, 100 = complete control, read-out: Blackgrass plant response rating (0 to 100 scale)
  pest or weed control at 125 g/ha: 50%
[18]; Postemergence, 31 g ai/ha, visual injury after approx. 10 d, 0 to 100 scale, 0 no effect, 100 complete control, read-out: Plant response rating, Blackgrass
  pest or weed control at 31 g/ha: 0%
